For one assay, the target named is T1, human TLR7 (Homo sapiens, UniProt Q9NYK1).
T1 construct: host or cells: HEK293 reporter cells
T1 sequence (Q9NYK1 27-1049): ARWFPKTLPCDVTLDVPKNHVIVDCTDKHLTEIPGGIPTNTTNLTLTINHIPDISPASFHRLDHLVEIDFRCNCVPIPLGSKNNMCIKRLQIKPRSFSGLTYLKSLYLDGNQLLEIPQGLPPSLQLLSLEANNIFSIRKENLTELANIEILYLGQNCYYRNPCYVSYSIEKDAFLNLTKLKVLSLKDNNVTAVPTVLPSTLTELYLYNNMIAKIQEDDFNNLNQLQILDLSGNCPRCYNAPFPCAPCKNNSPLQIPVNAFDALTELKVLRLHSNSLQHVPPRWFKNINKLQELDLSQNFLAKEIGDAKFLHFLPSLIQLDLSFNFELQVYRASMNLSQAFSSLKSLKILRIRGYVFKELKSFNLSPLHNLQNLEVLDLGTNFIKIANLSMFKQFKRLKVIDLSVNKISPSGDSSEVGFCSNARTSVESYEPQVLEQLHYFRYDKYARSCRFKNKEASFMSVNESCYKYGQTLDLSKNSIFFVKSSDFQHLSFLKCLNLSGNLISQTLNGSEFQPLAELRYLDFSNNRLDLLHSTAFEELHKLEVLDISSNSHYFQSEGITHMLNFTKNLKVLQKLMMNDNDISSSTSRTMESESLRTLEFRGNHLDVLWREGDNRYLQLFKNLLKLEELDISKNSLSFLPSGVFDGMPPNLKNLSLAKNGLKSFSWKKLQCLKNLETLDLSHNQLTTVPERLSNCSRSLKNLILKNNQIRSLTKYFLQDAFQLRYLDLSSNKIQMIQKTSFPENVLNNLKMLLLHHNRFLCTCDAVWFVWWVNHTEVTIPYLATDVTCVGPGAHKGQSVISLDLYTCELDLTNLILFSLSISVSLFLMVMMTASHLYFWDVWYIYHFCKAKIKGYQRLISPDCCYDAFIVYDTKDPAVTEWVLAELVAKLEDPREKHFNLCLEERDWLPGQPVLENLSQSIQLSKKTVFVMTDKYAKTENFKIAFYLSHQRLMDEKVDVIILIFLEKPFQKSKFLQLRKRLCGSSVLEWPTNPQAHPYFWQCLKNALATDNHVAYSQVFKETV
As to the kind of experiment: HEK293 NFKB reporter assay, human TLR7. It is filed as cell-based. The note with it: HEK293 NFKB reporter cells expressing human TLR7; read-out: HEK293 hTLR7 EC50. On the procedure:
Each compound was synthesized, purified, and characterized by mass spectrometry and shown to have the mass indicated. Additional experimental procedures are found in the Examples. Activity against HEK293 NFKB reporter cells expressing human TLR7 or human TLR8 was measured according to Example 202.
HEK293 reporter cells expressing human TLR7 or human TLR8 were purchased from Invivogen and vendor protocols were followed for cellular propagation and experimentation. Briefly, cells were grown to 80-85% confluence at 5% CO2 in DMEM supplemented with 10% FBS, Zeocin, and Blasticidin. Cells were then seeded in 96-well flat plates at 4×10^4 cells/well with substrate containing HEK detection medium and immunostimulatory molecules. Activity was measured using a plate reader at 620-655 nm wavelength.
Background: Reporter assays use an easily measured gene product as a stand-in for the process of interest.

Another assay deals with T2, human TLR8 (Homo sapiens, UniProt Q9NR97).
T2 construct: host or cells: HEK293 reporter cells
T2 sequence (Q9NR97 27-1041): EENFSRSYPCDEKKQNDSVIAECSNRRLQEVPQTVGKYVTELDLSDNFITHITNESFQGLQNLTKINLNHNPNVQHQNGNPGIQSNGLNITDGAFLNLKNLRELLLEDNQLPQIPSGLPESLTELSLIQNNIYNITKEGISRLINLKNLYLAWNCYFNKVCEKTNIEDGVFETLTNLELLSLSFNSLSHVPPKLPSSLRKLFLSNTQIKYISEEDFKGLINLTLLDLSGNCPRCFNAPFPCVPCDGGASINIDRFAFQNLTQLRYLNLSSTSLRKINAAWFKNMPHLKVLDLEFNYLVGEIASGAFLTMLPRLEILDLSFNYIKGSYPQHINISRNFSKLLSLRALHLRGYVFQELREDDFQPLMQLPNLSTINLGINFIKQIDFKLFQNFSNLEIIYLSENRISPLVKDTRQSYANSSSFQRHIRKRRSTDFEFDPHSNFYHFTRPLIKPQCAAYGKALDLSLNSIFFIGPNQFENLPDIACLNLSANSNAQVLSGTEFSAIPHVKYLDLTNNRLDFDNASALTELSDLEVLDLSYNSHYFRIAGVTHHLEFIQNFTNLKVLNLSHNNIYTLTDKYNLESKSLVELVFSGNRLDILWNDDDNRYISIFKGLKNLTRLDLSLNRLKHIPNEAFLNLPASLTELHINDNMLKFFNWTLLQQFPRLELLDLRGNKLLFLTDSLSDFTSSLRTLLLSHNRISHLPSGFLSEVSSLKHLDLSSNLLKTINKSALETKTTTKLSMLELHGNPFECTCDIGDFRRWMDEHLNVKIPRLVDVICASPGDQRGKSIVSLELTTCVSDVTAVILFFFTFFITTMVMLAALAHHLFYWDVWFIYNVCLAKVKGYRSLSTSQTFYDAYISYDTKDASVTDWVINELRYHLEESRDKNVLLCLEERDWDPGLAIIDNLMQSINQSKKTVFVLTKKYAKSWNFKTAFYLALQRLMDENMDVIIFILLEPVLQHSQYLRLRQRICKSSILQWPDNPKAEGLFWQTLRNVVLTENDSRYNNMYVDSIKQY
The assay is described as follows: HEK293 NFKB reporter assay, human TLR8. To be noted: HEK293 NFKB reporter cells expressing human TLR8; read-out: HEK293 hTLR8 EC50. It is filed as cell-based. The essentials:
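HEK293 NF-κB reporter cells expressing human TLR7 or TLR8 were seeded at 4×10^4 cells/well in HEK detection medium containing the stimulatory molecules. Reporter activity was read by absorbance at 620-655 nm.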

In the case of `CCCN(CCc1ccc(OC)cc1)C(=O)C1=Cc2sc(CCCCCN)cc2N=C(N)C1` [TAZ-107], the results for the half-maximal effective concentration (EC50) at human TLR7 and at human TLR8 were 3.58 µM and 6.98 µM, respectively.
The like results for `CCCN(CCC)C(=O)C1=Cc2sc(CCCCCNC(=O)CCOC)cc2N=C(N)C1` [TAZ-108] were, in that order, 3.85 µM and 3.47 µM.
The like results for `CCCN(C(=O)C1=Cc2sc(CCCCCN)cc2N=C(N)C1)C1CC1` [TAZ-122] were, in that order, 3.35 µM and 3.24 µM.
Turning to `CCCN(CC1CC1)C(=O)C1=Cc2sc(CCCCCN)cc2N=C(N)C1` [TAZ-124], the EC50 (in general, the concentration giving half of the maximal effect) at human TLR7 amounted to 1.73 µM; at human TLR8, 1.94 µM.
The matching figures for `CCCN(CC1CCC1)C(=O)C1=Cc2sc(CCCCCN)cc2N=C(N)C1` [TAZ-126]: 0.95 µM and 0.633 µM.
The matching figures for `CCCN(CCC)C(=O)C1=Cc2sc(CN3CCN(C)CC3)cc2N=C(N)C1` [TAZ-129]: 5.57 µM and 0.848 µM.
For the compound `CCCN(CCCNC(=O)OC(C)(C)C)C(=O)C1=Cc2sc(CCCCCN)cc2N=C(N)C1` [TAZ-133, tert-butyl (3-(5-amino-2-(5-aminopentyl)-N-propyl-6H-thieno[3,2-b]azepine-7-carboxamido)propyl)carbamate], the EC50 was 0.586 µM on human TLR7 and 3.01 µM at human TLR8.
`CCCN(CCC)C(=O)C1=Cc2sc(CC(=O)OC)cc2N=C(N)C1` [TAZ-134]: the EC50 was 4.7 µM at human TLR7 and 3.42 µM at human TLR8.
The like results for `CCCN(CCCNC(=O)C(C)(C)C)C(=O)C1=Cc2sc(CCCCCNC(=O)OC(C)(C)C)cc2N=C(N)C1` [TAZ-141] were, in that order, 0.38 µM and 3.58 µM.
The matching figures for `CCCN(Cc1ccc(CN(C)C)cc1C(F)(F)F)C(=O)C1=Cc2sc(CCCCCN)cc2N=C(N)C1` [TAZ-144]: 1.28 µM and 2.86 µM.
The matching figures for `CCCN(Cc1ccc(CN(C)C)c(C(F)(F)F)n1)C(=O)C1=Cc2sc(CCCCCN)cc2N=C(N)C1` [TAZ-145]: 5.94 µM and 4.01 µM.
As for `CCCN(OCCNC(=O)CC(C)(C)C)C(=O)C1=Cc2sc(CCCCCN)cc2N=C(N)C1` [TAZ-149], the values for the EC50 at human TLR7 and at human TLR8 were 0.534 µM and 2.24 µM, respectively.
On to `CCCN(OCCNC(=O)CC(C)(C)C)C(=O)C1=Cc2sc(CCCCCNC(=O)OC(C)(C)C)cc2N=C(N)C1` [TAZ-150], for which the figures for the EC50 on human TLR7 and at human TLR8 were 1.99 µM and 1.67 µM, respectively.
The like results for `CCCN(CCCNC(=O)OCc1ccccc1)C(=O)C1=Cc2sc(CCCCCNC(=O)OC(C)(C)C)cc2N=C(N)C1` [TAZ-162] were, in that order, 1.24 µM and 1.25 µM.
Consider `CCCN(CCCNC(=O)OC1CCC1)C(=O)C1=Cc2sc(C#CC3CCNCC3)cc2N=C(N)C1` [TAZ-164], for which the half-maximal effective concentration (EC50) on human TLR7 stood at 0.476 µM; on human TLR8 it was 3.89 µM.
`CCCN(CCCNC(=O)OC1CCC1)C(=O)C1=Cc2sc(CCC3CCNCC3)cc2N=C(N)C1` [TAZ-166]: the EC50 on human TLR7 amounted to 0.802 µM; on human TLR8 it was 3.7 µM.
The like results for `CCCN(CCCNC(=O)NCC)C(=O)C1=Cc2sc(CCCCCNC(=O)OC(C)(C)C)cc2N=C(N)C1` [TAZ-170] were, in that order, 0.282 µM and 3.37 µM.
The like results for `CCCN(CCCNC(=O)OC1CCC1)C(=O)C1=Cc2sc(CN)cc2N=C(N)C1` [TAZ-171] were, in that order, 5.29 µM and 3.13 µM.
The matching figures for `CCCN(CCCNC(=O)OC1CCC1)C(=O)C1=Cc2sc(-c3cn[nH]c3)cc2N=C(N)C1` [TAZ-172]: 0.153 µM and 3.7 µM.
For `CCCN(OCC)C(=O)C1=Cc2sc(C#CC3CCNCC3)cc2N=C(N)C1` [TAZ-174], the EC50 at human TLR7 is 5.81 µM; on human TLR8, 1.64 µM.
The matching figures for `CCCN(OCC)C(=O)C1=Cc2sc(CCC3CCN(C(=O)OC(C)(C)C)CC3)cc2N=C(N)C1` [TAZ-175]: 4.18 µM and 0.474 µM.
The like results for `CCCN(OCC)C(=O)C1=Cc2sc(CCC3CCNCC3)cc2N=C(N)C1` [TAZ-176, 5-amino-N-ethoxy-2-[2-(4-piperidyl)ethyl]-N-propyl-6H-thieno[3,2-b]azepine-7-carboxamide] were, in that order, 0.915 µM and 0.249 µM.
The matching figures for `CCCN(CCCNC(=O)OC1CCC1)C(=O)C1=Cc2sc(CC3CCN(C(=O)OC(C)(C)C)CC3)cc2N=C(N)C1` [TAZ-177]: 0.882 µM and 3.4 µM.
Consider `CCCN(OCC)C(=O)C1=Cc2sc(CC3CCNCC3)cc2N=C(N)C1` [TAZ-178], for which the figures for the EC50 on human TLR7 and on human TLR8 were 0.714 µM and 0.124 µM, respectively.
Regarding `CCCN(CCCNC(=O)OC1CCC1)C(=O)C1=Cc2sc(CC3CN(C(=O)OC(C)(C)C)C3)cc2N=C(N)C1` [TAZ-182], the EC50 at human TLR7 worked out at 0.101 µM; at human TLR8 it was 0.84 µM.
As to `CCCN(OCC)C(=O)C1=Cc2sc(CC3CNC3)cc2N=C(N)C1` [TAZ-183, 5-amino-2-(azetidin-3-ylmethyl)-N-ethoxy-N-propyl-6H-thieno[3,2-b]azepine-7-carboxamide], the EC50 at human TLR7 amounted to 3.56 µM; on human TLR8 it was 0.485 µM.
The matching figures for `CCCN(OCC)C(=O)C1=Cc2sc(CC3CN(C(=O)OC(C)(C)C)C3)cc2N=C(N)C1` [TAZ-184]: 0.922 µM and 0.93 µM.
The like results for `CCCN(CCCNC(=O)OC1CCC1)C(=O)C1=Cc2sc(CN3Cc4ccc(NC(=O)CCN)cc4C3)cc2N=C(N)C1` [TAZ-189] were, in that order, 5.72 µM and 3.39 µM.
The matching figures for `CCCN(CCCNC(=O)OC1CCC1)C(=O)C1=Cc2sc(CN3CCC(Nc4ccc(CN)cc4)C3)cc2N=C(N)C1` (stereo not drawn) [TAZ-190]: 2.99 µM and 4.8 µM.
Take `CCCN(CCCNC(=O)OC1CCC1)C(=O)C1=Cc2sc(C#CC3CNC3)cc2N=C(N)C1` [TAZ-192]: the EC50 on human TLR7 worked out at 0.824 µM; at human TLR8 it was 3.48 µM.
The like results for `CCCN(OCC)C(=O)C1=Cc2sc(C#CC3CNC3)cc2N=C(N)C1` [TAZ-193] were, in that order, 3.36 µM and 1.52 µM.
The matching figures for `CCCN(OCC)C(=O)C1=Cc2sc(CCC3CN(C(=O)OC(C)(C)C)C3)cc2N=C(N)C1` [TAZ-194]: 0.467 µM and 0.631 µM.
The like results for `CCCN(OCC)C(=O)C1=Cc2sc(CCC3CNC3)cc2N=C(N)C1` [TAZ-195] were, in that order, 6.6 µM and 0.953 µM.

Values taken from US11654199B2 (BOLT BIOTHERAPEUTICS, INC., priority 2019, dated 2023).
